Target: T1, human MCH receptor (Homo sapiens, UniProt Q99705)
T1 construct: expressed in transfected cells
Assay: Functional IC50 of MCH1R antagonists: cellular calcium flux (FLIPR) after MCH in recombinant HEK293 cells
Type: cell-based
Conditions: calcium flux after addition of agonist (MCH), recombinant HEK293 cell line expressing the human MCH receptor
Excerpt: Influence on the MCH receptor in vitro; determination of functional IC50 values of MCH1R antagonists
Cloning of the cDNA for the human MCH receptor, preparation of a recombinant HEK293 cell line which expresses the human MCH receptor, and functional measurements with the recombinant cell line took place in analogy to the description by Audinot et al. (J. Biol. Chem. 276, 13554-13562, 2001). A difference from the reference was, however, the use of the plasmid pEAK8 from EDGE Biosystems (USA) for the construction of the expression vector. The host used for the transfection was a transformed HEK cell line named “PEAK Stable Cells” (likewise from EDGE Biosystems). Functional measurements of the cellular calcium flux after addition of agonist (MCH) in the presence of ligand of the invention took place with the aid of the FLIPR apparatus from Molecular Devices (USA), using protocols of the apparatus manufacturer. The compounds of the invention show a significant inhibition (>30%) of the signal induced by the agonist at a concentration of 100 μM, preferably at 10 μM, particularly preferably at 1 μM, very particularly preferably at 100 nM and even more particularly preferably at 10 nM. Besides the functional activity it is also possible to determine the affinity for the MCH1R according to Audinot et al. (Br. J. Pharmacol. 2001, 133, 371-378).

T1 sequence (Q99705 whole entry): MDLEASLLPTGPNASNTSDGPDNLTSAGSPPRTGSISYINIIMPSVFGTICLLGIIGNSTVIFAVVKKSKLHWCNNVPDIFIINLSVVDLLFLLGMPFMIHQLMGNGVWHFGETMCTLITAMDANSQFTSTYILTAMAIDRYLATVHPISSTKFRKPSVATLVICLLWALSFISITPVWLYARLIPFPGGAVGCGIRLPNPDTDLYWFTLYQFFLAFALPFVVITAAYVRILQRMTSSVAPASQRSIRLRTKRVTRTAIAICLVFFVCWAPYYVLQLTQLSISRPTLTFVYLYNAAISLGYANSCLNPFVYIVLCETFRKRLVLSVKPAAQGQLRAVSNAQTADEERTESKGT

**Q.** CN1[C@@H]2CC[C@H]1C[C@@H](Oc1ccc(-n3cnc4cc(CC(O)c5ccco5)sc4c3=O)cc1)C2 (some centres unmarked) [Example 169] was tested. Which IC50 did it give?
**A.** 290 nM

**Q.** Which IC50 does the source give for CN1[C@@H]2CC[C@H]1C[C@@H](Oc1ccc(-n3cnc4cc(C(O)C5CCCC5)sc4c3=O)cc1)C2 (stereo partly drawn) [Example 121, 6-(Cyclopentylhydroxymethyl)-3-[4-((1S,3R,5R)-8-methyl-8-azabicyclo[3.2.1]oct-3-yloxy)phenyl]-3H-thieno[3,2-d]pyrimidin-4-one] here?
**A.** 750 nM

**Q.** CN1[C@@H]2CC[C@H]1CC(Oc1ccc(-n3cnc4cc(N5C[C@H]6CCCN6C5=O)sc4c3=O)cc1)C2 (some centres unmarked) [Example 77] was tested. Which IC50 did it give?
**A.** 9650 nM

**Q.** With CN1[C@@H]2CC[C@H]1C[C@@H](Oc1ccc(-n3cnc4cc(C(O)CC(C)(C)C)sc4c3=O)cc1)C2 (some centres unmarked) [Example 135] as the compound, how does the IC50 read?
**A.** 2250 nM

**Q.** Which IC50 does the source give for CS(=O)(=O)CCN1[C@@H]2CC[C@H]1C[C@@H](Oc1ccc(-n3cnc4cc(C#CC5CC5)sc4c3=O)cc1)C2 [Example 63] here?
**A.** 560 nM

**Q.** CN1[C@@H]2CC[C@H]1CC(Oc1ccc(-n3cnc4cc(C5=CCOCC5)sc4c3=O)cc1)C2 (some centres unmarked) [Example 142] was tested. Which IC50 did it give?
**A.** 2590 nM

**Q.** How did the IC50 turn out when COc1cc(-n2cnc3cc(C#CC4CC4)sc3c2=O)ccc1OCCN1CCCC1 [Example 42, 6-Cyclopropylethynyl-3-[3-methoxy-4-(2-pyrrolidin-1-ylethoxy)phenyl]-3H-thieno[3,2-d]-pyrimidin-4-one] was run?
**A.** 110 nM

**Q.** How did the IC50 turn out when COCCCc1cc2ncn(-c3ccc(O[C@H]4C[C@H]5CC[C@@H](C4)N5C)c(Cl)c3)c(=O)c2s1 [Example 23] was run?
**A.** 530 nM

**Q.** Which IC50 does the source give for CCC(C)(O)CCc1cc2ncn(-c3ccc(O[C@H]4C[C@H]5CC[C@@H](C4)N5C)c(Cl)c3)c(=O)c2s1 (some centres unmarked) [Example 20] here?
**A.** 1030 nM

**Q.** With CCCCC(=O)c1cc2ncn(-c3ccc(O[C@H]4C[C@H]5CC[C@@H](C4)N5C)cc3)c(=O)c2s1 [Example 114] as the compound, how does the IC50 read?
**A.** 1860 nM

**Q.** CCC(O)C#Cc1cc2ncn(-c3ccc(OC4C[C@H]5CC[C@@H](C4)N5C)c(CCC(O)CC)c3)c(=O)c2s1 (some centres unmarked) [Example 178] was tested. Which IC50 did it give?
**A.** 1270 nM

**Q.** Which IC50 does the source give for CN(C)CCOc1ccc(-n2cnc3cc(COCC4CCC4)sc3c2=O)cc1 [Example 93, 6-Cyclobutylmethoxymethyl-3-[4 (2-dimethylaminoethoxy)phenyl]-3H-thieno[3,2-d]pyrimidin-4-one] here?
**A.** 930 nM

**Q.** How did the IC50 turn out when CC(C)N(C)C(=O)c1cc2ncn(-c3ccc(O[C@H]4C[C@H]5CC[C@@H](C4)N5C)cc3)c(=O)c2s1 [Example 82] was run?
**A.** 6880 nM

**Q.** CN1[C@@H]2CC[C@H]1C[C@@H](Oc1ccc(-n3cnc4cc(CCc5ccco5)sc4c3=O)cc1)C2 [Example 171, 6-(2-Furan-2-ylethyl)-3-[4-((1S,3R,5R)-8-methyl-8-azabicyclo[3.2.1]oct-3-yloxy)phenyl]-3H-thieno[3,2-d]pyrimidin-4-one] was tested. Which IC50 did it give?
**A.** 210 nM

**Q.** CN1[C@@H]2CC[C@H]1C[C@@H](Oc1ccc(-n3cnc4cc(CCC5(O)CCCC5)sc4c3=O)cc1)C2 [Example 11, 6-[2-(1-Hydroxycyclopentyl)ethyl]-3-[4-((1R,3R,5S)-8-methyl-8-azabicyclo[3.2.1]oct-3-yloxy)phenyl]-3H-thieno[3,2-d]pyrimidin-4-one] was tested. Which IC50 did it give?
**A.** 1290 nM

**Q.** Which IC50 does the source give for CCC(O)CCc1cc2ncn(-c3ccc(OC4C[C@H]5CC[C@@H](C4)N5C)c(CCCO)c3)c(=O)c2s1 (some centres unmarked) [Example 190] here?
**A.** 1350 nM

**Q.** Which IC50 does the source give for CCC(O)CCc1cc2ncn(-c3ccc(O[C@H]4C[C@H]5CC[C@@H](C4)N5C)c(C)c3)c(=O)c2s1 (some centres unmarked) [Example 27] here?
**A.** 140 nM

**Q.** With COC(C)(C)C#Cc1cc2ncn(-c3ccc(O[C@H]4C[C@H]5CC[C@@H](C4)N5C)cc3)c(=O)c2s1 [Example 56] as the compound, how does the IC50 read?
**A.** 840 nM

**Q.** For CCCCC(O)c1cc2ncn(-c3ccc(O[C@H]4C[C@H]5CC[C@@H](C4)N5C)cc3)c(=O)c2s1 (some centres unmarked) [Example 127], which IC50 is on record?
**A.** 1000 nM

**Q.** How did the IC50 turn out when Cc1cc(-n2cnc3cc(C#CC(C)O)sc3c2=O)ccc1O[C@H]1C[C@H]2CC[C@@H](C1)N2C (some centres unmarked) [Example 57] was run?
**A.** 120 nM

**Q.** Which IC50 does the source give for CN1[C@@H]2CC[C@H]1C[C@@H](Oc1ccc(-n3cnc4cc(C#CC5CC5)sc4c3=O)cc1)C2 [Example 62] here?
**A.** 100 nM

**Q.** CC(O)C#Cc1cc2ncn(-c3ccc(O[C@H]4C[C@H]5CC[C@@H](C4)N5C)cc3)c(=O)c2s1 (some centres unmarked) [Example 50] was tested. Which IC50 did it give?
**A.** 240 nM

**Q.** How did the IC50 turn out when COc1cc(-n2cnc3cc(C#CC(C)O)sc3c2=O)ccc1O[C@H]1C[C@H]2CC[C@@H](C1)N2C (some centres unmarked) [Example 58] was run?
**A.** 340 nM

**Q.** For CN1[C@@H]2CC[C@H]1C[C@@H](Oc1ccc(-n3cnc4cc(C(=O)N5CCCCC5)sc4c3=O)cc1)C2 [Example 84], which IC50 is on record?
**A.** 13000 nM

**Q.** For CCc1cc(-n2cnc3cc(C#CC(O)CC)sc3c2=O)ccc1O[C@H]1C[C@H]2CC[C@@H](C1)N2C (some centres unmarked) [Example 181], which IC50 is on record?
**A.** 210 nM

**Q.** O=c1c2sc(C#CC3CC3)cc2ncn1-c1ccc(OCCN2CCCC2)c(F)c1 [Example 69] was tested. Which IC50 did it give?
**A.** 200 nM

**Q.** With COCCCc1cc2ncn(-c3ccc(O[C@H]4C[C@H]5CC[C@@H](C4)N5C)c(C)c3)c(=O)c2s1 [Example 22] as the compound, how does the IC50 read?
**A.** 400 nM

**Q.** With CN1[C@@H]2CC[C@H]1C[C@@H](Oc1ccc(-n3cnc4cc(CC(O)C5CCC5)sc4c3=O)cc1)C2 (some centres unmarked) [Example 166] as the compound, how does the IC50 read?
**A.** 1090 nM

**Q.** With CN1[C@@H]2CC[C@H]1C[C@@H](Oc1ccc(-n3cnc4cc(CCC5CC5)sc4c3=O)cc1)C2 [Example 7] as the compound, how does the IC50 read?
**A.** 940 nM
